Laboratory results taken from patent US20060063784A1, “Method of using substituted pyrazolo [1,5-a] pyrimidines” (priority 2004, published 2006).
Where two headings read alike, the source gives them in different places.

Tested on: 80S14 (p21-deficient) cells
Assay: Cytotoxicity assay using isogenic cell lines: IC50 in 80S14 (p21-deficient) cells, SRB
Type: cell-based, human
Details: 80S14 p21-deficient cells, 5 days incubation, SRB, read-out: IC50 for 80SI4
Summary of the method: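 IC50 is the concentration halving proliferation relative to untreated controls, read from SRB absorbance (560 nm) after TCA fixation. Test agent dilutions (5 pM–50 μM or 170 pg/ml–10 μg/ml) were left on p21-deficient 80S14 cells (12,000/well, pre-incubated overnight) for 5 days at 37 °C.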

For `O=C(Nc1cccc(-c2ccnc3c(C(=O)c4cccs4)cnn23)c1)c1ccc(Cl)c(Cl)c1` [Example 100, 3,4-dichloro-N-{3-[3-(thien-2-ylcarbonyl)pyrazolo[1,5-a]pyrimidin-7-yl]phenyl}benzamide], the IC50 (Homo sapiens, 120 h) was 10 to 50 µM.
For `COc1cccc(OC)c1C(=O)Nc1cccc(-c2ccnc3c(C(=O)c4cccs4)cnn23)c1` [Example 101, 2,6-dimethoxy-N-{3-[3-(thien-2-ylcarbonyl)pyrazolo[1,5-a]pyrimidin-7-yl]phenyl}benzamide], the IC50 (Homo sapiens, 120 h) was < 1 µM.
`O=C(Nc1cccc(-c2ccnc3c(C(=O)c4cccs4)cnn23)c1)c1ccc(F)c(F)c1` [Example 102, 3,4-difluoro-N-{3-[3-(thien-2-ylcarbonyl)pyrazolo[1,5-a]pyrimidin-7-yl]phenyl}benzamide] showed an IC50 (Homo sapiens, 120 h) of 1 to 10 µM.
In the case of `O=C(Nc1cccc(-c2ccnc3c(C(=O)c4cccs4)cnn23)c1)c1cccc2ccccc12` [Example 103, N-{3-[3-(thien-2-ylcarbonyl)pyrazolo[1,5-a]pyrimidin-7-yl]phenyl}-1-naphthamide], the IC50 (Homo sapiens, 120 h) is reported as < 1 µM.
With `O=C(Nc1cccc(-c2ccnc3c(C(=O)c4cccs4)cnn23)c1)c1ccc2ccccc2c1` [Example 104, N-{3-[3-(thien-2-ylcarbonyl)pyrazolo[1,5-a]pyrimidin-7-yl]phenyl}-2-naphthamide] the IC50 (Homo sapiens, 120 h) was 10 to 50 µM.
In the case of `O=C(Cc1ccccc1)Nc1cccc(-c2ccnc3c(C(=O)c4cccs4)cnn23)c1` [Example 105, 2-phenyl-N-{3-[3-(thien-2-ylcarbonyl)pyrazolo[1,5-a]pyrimidin-7-yl]phenyl}acetamide], the IC50 (Homo sapiens, 120 h) is reported as < 1 µM.
In the case of `COc1ccc(CC(=O)Nc2cccc(-c3ccnc4c(C(=O)c5cccs5)cnn34)c2)cc1` [Example 106, 2-(4-methoxyphenyl)-N-{3-[3-(thien-2-ylcarbonyl)pyrazolo[1,5-a]pyrimidin-7-yl]phenyl}acetamide], the IC50 (Homo sapiens, 120 h) is reported as < 1 µM.
For `COc1cccc(CC(=O)Nc2cccc(-c3ccnc4c(C(=O)c5cccs5)cnn34)c2)c1` [Example 107, 2-(3-methoxyphenyl)-N-{3-[3-(thien-2-ylcarbonyl)pyrazolo[1,5-a]pyrimidin-7-yl]phenyl}acetamide], the IC50 (Homo sapiens, 120 h) was < 1 µM.
For `O=C(Cc1ccc(Cl)cc1)Nc1cccc(-c2ccnc3c(C(=O)c4cccs4)cnn23)c1` [Example 108, 2-(4-chlorophenyl)-N-{3-[3-(thien-2-ylcarbonyl)pyrazolo[1,5-a]pyrimidin-7-yl]phenyl}acetamide], the IC50 (Homo sapiens, 120 h) was < 1 µM.
With `O=C(Cc1ccc(F)cc1)Nc1cccc(-c2ccnc3c(C(=O)c4cccs4)cnn23)c1` [Example 109, 2-(4-fluorophenyl)-N-{3-[3-(thien-2-ylcarbonyl)pyrazolo[1,5-a]pyrimidin-7-yl]phenyl}acetamide] the IC50 (Homo sapiens, 120 h) was < 1 µM.
For `COc1ccc(OC)c(CC(=O)Nc2cccc(-c3ccnc4c(C(=O)c5cccs5)cnn34)c2)c1` [Example 110, 2-(2,5-dimethoxyphenyl)-N-{3-[3-(thien-2-ylcarbonyl)pyrazolo[1,5-a]pyrimidin-7-yl]phenyl}acetamide], the IC50 (Homo sapiens, 120 h) was 1 to 10 µM.
`O=C(COc1ccccc1)Nc1cccc(-c2ccnc3c(C(=O)c4cccs4)cnn23)c1` [Example 111, 2-phenoxy-N-{3-[3-(thien-2-ylcarbonyl)pyrazolo[1,5-a]pyrimidin-7-yl]phenyl}acetamide] gave an IC50 (Homo sapiens, 120 h) of 1 to 10 µM.
With `O=C(Nc1cccc(-c2ccnc3c(C(=O)c4cccs4)cnn23)c1)c1ccc(F)cc1` [Example 112, 4-fluoro-N-{3-[3-(thien-2-ylcarbonyl)pyrazolo[1,5-a]pyrimidin-7-yl]phenyl}benzamide] the IC50 (Homo sapiens, 120 h) was < 1 µM.
Molecule `CCOC(=O)NCC(=O)Nc1cccc(-c2ccnc3c(C(=O)c4cccs4)cnn23)c1` [Example 113, ethyl 2-oxo-2-({3-[3-(thien-2-ylcarbonyl)pyrazolo[1,5-a]pyrimidin-7-yl]phenyl}amino)ethylcarbamate] has an IC50 (Homo sapiens, 120 h) of 1 to 10 µM.
`CCCOC(=O)NCC(=O)Nc1cccc(-c2ccnc3c(C(=O)c4cccs4)cnn23)c1` [Example 114, propyl 2-oxo-2-({3-[3-(thien-2-ylcarbonyl)pyrazolo[1,5-a]pyrimidin-7-yl]phenyl}amino)ethylcarbamate] was tested, and the IC50 (Homo sapiens, 120 h) was 10 to 50 µM.
`CC(C)OC(=O)NCC(=O)Nc1cccc(-c2ccnc3c(C(=O)c4cccs4)cnn23)c1` [Example 115, isopropyl 2-oxo-2-({3-[3-(thien-2-ylcarbonyl)pyrazolo[1,5-a]pyrimidin-7-yl]phenyl}amino)ethylcarbamate] gave an IC50 (Homo sapiens, 120 h) of 1 to 10 µM.
`CCCCOC(=O)NCC(=O)Nc1cccc(-c2ccnc3c(C(=O)c4cccs4)cnn23)c1` [Example 116, butyl 2-oxo-2-({3-[3-(thien-2-ylcarbonyl)pyrazolo[1,5-a]pyrimidin-7-yl]phenyl}amino)ethylcarbamate] was tested, and the IC50 (Homo sapiens, 120 h) was < 1 µM.
In the case of `CC(C)COC(=O)NCC(=O)Nc1cccc(-c2ccnc3c(C(=O)c4cccs4)cnn23)c1` [Example 117, isobutyl 2-oxo-2-({3-[3-(thien-2-ylcarbonyl)pyrazolo[1,5-a]pyrimidin-7-yl]phenyl}amino)ethylcarbamate], the IC50 (Homo sapiens, 120 h) is reported as 1 to 10 µM.
`C=CCCOC(=O)NCC(=O)Nc1cccc(-c2ccnc3c(C(=O)c4cccs4)cnn23)c1` [Example 118, but-3-enyl-2-oxo-2-({3-[3-(thien-2-ylcarbonyl)pyrazolo[1,5-a]pyrimidin-7-yl]phenyl}amino)ethylcarbamate] showed an IC50 (Homo sapiens, 120 h) of 1 to 10 µM.
`O=C(CNC(=O)OCCCCCl)Nc1cccc(-c2ccnc3c(C(=O)c4cccs4)cnn23)c1` [Example 119, 4-chlorobutyl 2-oxo-2-({3-[3-(thien-2-ylcarbonyl)pyrazolo[1,5-a]pyrimidin-7-yl]phenyl}amino)ethylcarbamate] showed an IC50 (Homo sapiens, 120 h) of 10 to 50 µM.
In the case of `O=C(CNC(=O)OCCCl)Nc1cccc(-c2ccnc3c(C(=O)c4cccs4)cnn23)c1` [Example 120, 2-chloroethyl-2-oxo-2-({3-[3-(thien-2-ylcarbonyl)pyrazolo[1,5-a]pyrimidin-7-yl]phenyl}amino)ethylcarbamate], the IC50 (Homo sapiens, 120 h) is reported as 1 to 10 µM.
In the case of `CC(C)(C)COC(=O)NCC(=O)Nc1cccc(-c2ccnc3c(C(=O)c4cccs4)cnn23)c1` [Example 121, neopentyl 2-oxo-2-({3-[3-(thien-2-ylcarbonyl)pyrazolo[1,5-a]pyrimidin-7-yl]phenyl}amino)ethylcarbamate], the IC50 (Homo sapiens, 120 h) is reported as 1 to 10 µM.
With `CCCCCCOC(=O)NCC(=O)Nc1cccc(-c2ccnc3c(C(=O)c4cccs4)cnn23)c1` [Example 122, hexyl 2-oxo-2-({3-[3-(thien-2-ylcarbonyl)pyrazolo[1,5-a]pyrimidin-7-yl]phenyl}amino)ethylcarbamate] the IC50 (Homo sapiens, 120 h) was 1 to 10 µM.
`C#CCOC(=O)NCC(=O)Nc1cccc(-c2ccnc3c(C(=O)c4cccs4)cnn23)c1` [Example 123, prop-2-ynyl 2-oxo-2-({3-[3-(thien-2-ylcarbonyl)pyrazolo[1,5-a]pyrimidin-7-yl]phenyl}amino)ethylcarbamate] showed an IC50 (Homo sapiens, 120 h) of 1 to 10 µM.
`C=CCOC(=O)NCC(=O)Nc1cccc(-c2ccnc3c(C(=O)c4cccs4)cnn23)c1` [Example 124, allyl 2-oxo-2-({3-[3-(thien-2-ylcarbonyl)pyrazolo[1,5-a)pyrimidin-7-yl]phenyl}amino)ethylcarbamate] gave an IC50 (Homo sapiens, 120 h) of 10 to 50 µM.
Molecule `O=C(CNC(=O)OCc1ccccc1)Nc1cccc(-c2ccnc3c(C(=O)c4cccs4)cnn23)c1` [Example 125, benzyl 2-oxo-2-({3-[3-(thien-2-ylcarbonyl)pyrazolo[1,5-a]pyrimidin-7-yl]phenyl}amino)ethylcarbamate] has an IC50 (Homo sapiens, 120 h) of 1 to 10 µM.
In the case of `O=C(CNC(=O)C1CC1)Nc1cccc(-c2ccnc3c(C(=O)c4cccs4)cnn23)c1` [Example 126, N-[2-oxo-2-({3-[3-(thien-2-ylcarbonyl)pyrazolo[1,5-a]pyrimidin-7-yl]phenyl}amino)ethyl]cyclopropanecarboxamide], the IC50 (Homo sapiens, 120 h) is reported as 10 to 50 µM.
With `O=C(CNC(=O)C1CCC1)Nc1cccc(-c2ccnc3c(C(=O)c4cccs4)cnn23)c1` [Example 127, N-[2-oxo-2-({3-[3-(thien-2-ylcarbonyl)pyrazolo[1,5-a]pyrimidin-7-yl]phenyl}amino)ethyl]cyclobutanecarboxamide] the IC50 (Homo sapiens, 120 h) was 10 to 50 µM.
Work on `O=C(CNC(=O)C1CCCC1)Nc1cccc(-c2ccnc3c(C(=O)c4cccs4)cnn23)c1` [Example 128, N-[2-oxo-2-({3-[3-(thien-2-ylcarbonyl)pyrazolo[1,5-a]pyrimidin-7-yl]phenyl}amino)ethyl]cyclopentanecarboxamide] yielded an IC50 (Homo sapiens, 120 h) of 1 to 10 µM.
`O=C(CNC(=O)C1CCCCC1)Nc1cccc(-c2ccnc3c(C(=O)c4cccs4)cnn23)c1` [Example 129, N-[2-oxo-2-({3-[3-(thien-2-ylcarbonyl)pyrazolo[1,5-a]pyrimidin-7-yl]phenyl}amino)ethyl]cyclohexanecarboxamide] was tested, and the IC50 (Homo sapiens, 120 h) was 10 to 50 µM.
In the case of `CCC(C)C(=O)NCC(=O)Nc1cccc(-c2ccnc3c(C(=O)c4cccs4)cnn23)c1` (centres unmarked) [Example 130, 2-methyl-N-[2-oxo-2-({3-[3-(thien-2-ylcarbonyl)pyrazolo[1,5-a]pyrimidin-7-yl]phenyl}amino)ethyl]butanamide], the IC50 (Homo sapiens, 120 h) is reported as 10 to 50 µM.
`CCC(CC)C(=O)NCC(=O)Nc1cccc(-c2ccnc3c(C(=O)c4cccs4)cnn23)c1` [Example 131, 2-ethyl-N-[2-oxo-2-({3-[3-(thien-2-ylcarbonyl)pyrazolo[1,5-a]pyrimidin-7-yl]phenyl}amino)ethyl]butanamide] was tested, and the IC50 (Homo sapiens, 120 h) was 10 to 50 µM.
In the case of `CC(C)(C)C(=O)NCC(=O)Nc1cccc(-c2ccnc3c(C(=O)c4cccs4)cnn23)c1` [Example 132], the IC50 is reported as 1 to 10 µM.
`CC(C)CC(=O)NCC(=O)Nc1cccc(-c2ccnc3c(C(=O)c4cccs4)cnn23)c1` [Example 133, 3-methyl-N-[2-oxo-2-({3-[3-(thien-2-ylcarbonyl)pyrazolo[1,5-a]pyrimidin-7-yl]phenyl}amino)ethyl]butanamide] gave an IC50 (Homo sapiens, 120 h) of 1 to 10 µM.
`O=C(CNC(=O)C12CC3CC(CC(C3)C1)C2)Nc1cccc(-c2ccnc3c(C(=O)c4cccs4)cnn23)c1` [Example 134, N-[2-oxo-2-({3-[3-(thien-2-ylcarbonyl)pyrazolo[1,5-a]pyrimidin-7-yl]phenyl}amino)ethyl]adamantine-1-carboxamide] gave an IC50 of 1 to 10 µM.
